Laboratory results taken from patent US9695155B2, “Herbicidal substituted pyrimidinyloxy benzene compounds” (E. I. DU PONT DE NEMOURS AND COMPANY, priority 2013, dated 2017).

Key:
[1] = test system: ragweed; test: Test A preemergence; type: in vivo, Ambrosia elatior
In short: (§1)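 Greenhouse pot test, loam/sand soil. Formulation: non-phytotoxic solvent mix plus surfactant. Pre: directed spray onto soil after sowing. Post: plants at 1–2 leaf, 2–10 cm. Rated visually vs untreated controls at ~10 d, 0 (no effect) to 100 (complete control).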

[2] = test system: ragweed; test: Test A postemergence; type: in vivo, Ambrosia elatior; details: 0 to 100 scale, 0 no effect, 100 complete control
In short: as §1

[3] = test system: Italian ryegrass; test: Test A postemergence; type: in vivo, Lolium multiflorum; details: 0 to 100 scale, 0 no effect, 100 complete control
In short: as §1

[4] = test system: galium; test: Test A postemergence; type: in vivo, Galium aparine; details: 0 to 100 scale, 0 no effect, 100 complete control
In short: as §1

[5] = test system: blackgrass; test: Test C preemergence; type: in vivo, Alopecurus myosuroides; details: Alopecurus myosuroides, pre-emergence
In short: (§2)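 Whole-plant greenhouse test with surfactant-containing solvent formulation, applied preemergence to sown loam–sand pots or postemergence to 2–18 cm plants. Scored by eye 13 to 15 days on, 0–100 scale.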

[6] = test system: Italian ryegrass; test: Test C preemergence; type: in vivo, Lolium multiflorum; details: Lolium multiflorum, pre-emergence
In short: as §2

[7] = test system: corn; test: Test C preemergence; type: in vivo, Zea mays; details: Zea mays, pre-emergence
In short: as §2

[8] = test system: large (Lg) crabgrass; test: Test C preemergence; type: in vivo, Digitaria sanguinalis; details: Digitaria sanguinalis, pre-emergence
In short: as §2

[9] = test system: giant foxtail; test: Test C preemergence; type: in vivo, Setaria faberii; details: Setaria faberi, pre-emergence
In short: as §2

[10] = test system: lambsquarters; test: Test C preemergence; type: in vivo, Chenopodium album; details: Chenopodium album, pre-emergence
In short: as §2

[11] = test system: morningglory; test: Test C preemergence; type: in vivo, Ipomoea coccinea; details: Ipomoea, pre-emergence
In short: as §2

[12] = test system: yellow nutsedge; test: Test C preemergence; type: in vivo, Cyperus esculentus; details: Cyperus, pre-emergence
In short: as §2

[13] = test system: pigweed; test: Test C preemergence; type: in vivo, Amaranthus retroflexus; details: Amaranthus retroflexus, pre-emergence
In short: as §2

[14] = test system: ragweed; test: Test C preemergence; type: in vivo, Ambrosia elatior; details: Ambrosia artemisiifolia, pre-emergence
In short: as §2

[15] = test system: soybean; test: Test C preemergence; type: in vivo, Glycine max; details: Glycine max, pre-emergence
In short: as §2

[16] = test system: barnyardgrass; test: Test C preemergence; type: in vivo, Echinochloa crus-galli; details: Echinochloa crus-galli, pre-emergence
In short: as §2

[17] = test system: oilseed rape; test: Test C preemergence; type: in vivo, Brassica napus; details: Brassica napus, pre-emergence
In short: as §2

[18] = test system: velvetleaf; test: Test C preemergence; type: in vivo, Abutilon theophrasti; details: Abutilon theophrasti, pre-emergence
In short: as §2

In the case of N#Cc1cccc(Oc2ncc(Cl)cn2)c1-n1cc(C(F)F)cn1 [Compound 253, 3-(5-chloropyrimidin-2-yl)oxy-2-[4-(difluoromethyl)-1H-pyrazol-1-yl]benzonitrile], the “Plant response rating, Ragweed” value ([1]; 31 g ai/ha, 0 to 100 scale where 0 is no effect and 100 is complete control, visual, approximately 10 days) is reported as 20, the “Ragweed plant response rating (0 to 100 scale)” value ([1]; 125 g ai/ha) is reported as 80 and the “Plant response rating, Ragweed” value ([2]; 31 g ai/ha) is reported as 20. The “Plant response rating, Ragweed” value ([2]; 125 g ai/ha) was 80, the “Plant response rating, Ryegrass, Italian” value ([3]; 31 g ai/ha) was 0 and the “Plant response rating, Ryegrass, Italian” value ([3]; 125 g ai/ha) was 50. The “Plant response rating, Galium” value ([4]; 31 g ai/ha) was 60, the “Plant response rating, Galium” value ([4]; 125 g ai/ha) was 100 and the pest or weed control at 16 g/ha ([5]; 16 g ai/ha, preemergence, scale 0 to 100 (0 no effect, 100 complete control), read-out: Blackgrass plant response rating) was 0%. For the same compound, the pest or weed control at 125 g/ha ([5]; 125 g ai/ha, preemergence, scale 0 (no effect) to 100 (complete control), read-out: Blackgrass plant response rating) was 90%, the pest or weed control at 62 g/ha ([5]; Preemergence, 62 g ai/ha, scale 0 to 100, 0 no effect, 100 complete control, read-out: Plant response rating, Blackgrass) was 90% and the pest or weed control at 16 g/ha ([6]; 16 g ai/ha, preemergence, scale 0 to 100 (0 no effect, 100 complete control), read-out: Ryegrass, Italian plant response rating) was 0%. The pest or weed control at 125 g/ha ([6]; 125 g ai/ha, preemergence, scale 0 (no effect) to 100 (complete control), read-out: Ryegrass, Italian plant response rating) was 80%, the pest or weed control at 62 g/ha ([6]; Preemergence, 62 g ai/ha, scale 0 to 100, 0 no effect, 100 complete control, read-out: Plant response rating, Ryegrass, Italian) was 35% and the plant injury at 16 g/ha ([7]; 16 g ai/ha, preemergence, scale 0 to 100 (0 no effect, 100 complete control), read-out: Corn plant response rating) was 0%. It also gave a plant injury at 125 g/ha ([7]; 125 g ai/ha, preemergence, scale 0 (no effect) to 100 (complete control), read-out: Corn plant response rating) of 90%, a Corn plant response rating (crop injury, 0 = no effect, 100 = complete kill) at 62 g/ha ([7]; Preemergence, 62 g ai/ha, scale 0 to 100, 0 no effect, 100 complete control) of 35% and a pest or weed control at 16 g/ha ([8]; 16 g ai/ha, preemergence, scale 0 to 100 (0 no effect, 100 complete control), read-out: Crabgrass, Large plant response rating) of 85%. The pest or weed control at 125 g/ha ([8]; 125 g ai/ha, preemergence, scale 0 (no effect) to 100 (complete control), read-out: Crabgrass, Large plant response rating) was 100%, the pest or weed control at 62 g/ha ([8]; Preemergence, 62 g ai/ha, scale 0 to 100, 0 no effect, 100 complete control, read-out: Plant response rating, Crabgrass, Large) was 100% and the pest or weed control at 16 g/ha ([9]; 16 g ai/ha, preemergence, scale 0 to 100 (0 no effect, 100 complete control), read-out: Foxtail, Giant plant response rating) was 35%. For the same compound, the pest or weed control at 125 g/ha ([9]; 125 g ai/ha, preemergence, scale 0 (no effect) to 100 (complete control), read-out: Foxtail, Giant plant response rating) was 100%, the pest or weed control at 62 g/ha ([9]; Preemergence, 62 g ai/ha, scale 0 to 100, 0 no effect, 100 complete control, read-out: Plant response rating, Foxtail, Giant) was 98% and the pest or weed control at 16 g/ha ([10]; 16 g ai/ha, preemergence, scale 0 to 100 (0 no effect, 100 complete control), read-out: Lambsquarters plant response rating) was 100%. For the same compound, the pest or weed control at 125 g/ha ([10]; 125 g ai/ha, preemergence, scale 0 (no effect) to 100 (complete control), read-out: Lambsquarters plant response rating) was 100%, the pest or weed control at 62 g/ha ([10]; Preemergence, 62 g ai/ha, scale 0 to 100, 0 no effect, 100 complete control, read-out: Plant response rating, Lambsquarters) was 100% and the pest or weed control at 16 g/ha ([11]; 16 g ai/ha, preemergence, scale 0 to 100 (0 no effect, 100 complete control), read-out: Morningglory plant response rating) was 40%. It also gave a pest or weed control at 125 g/ha ([11]; 125 g ai/ha, preemergence, scale 0 (no effect) to 100 (complete control), read-out: Morningglory plant response rating) of 100%, a pest or weed control at 62 g/ha ([11]; Preemergence, 62 g ai/ha, scale 0 to 100, 0 no effect, 100 complete control, read-out: Plant response rating, Morningglory) of 98% and a pest or weed control at 16 g/ha ([12]; 16 g ai/ha, preemergence, scale 0 to 100 (0 no effect, 100 complete control), read-out: Nutsedge, Yellow plant response rating) of 0%. For the same compound, the pest or weed control at 125 g/ha ([12]; 125 g ai/ha, preemergence, scale 0 (no effect) to 100 (complete control), read-out: Nutsedge, Yellow plant response rating) was 65%, the pest or weed control at 62 g/ha ([12]; Preemergence, 62 g ai/ha, scale 0 to 100, 0 no effect, 100 complete control, read-out: Plant response rating, Nutsedge, Yellow) was 20% and the pest or weed control at 16 g/ha ([13]; 16 g ai/ha, preemergence, scale 0 to 100 (0 no effect, 100 complete control), read-out: Pigweed plant response rating) was 100%. For the same compound, the pest or weed control at 125 g/ha ([13]; 125 g ai/ha, preemergence, scale 0 (no effect) to 100 (complete control), read-out: Pigweed plant response rating) was 100%, the pest or weed control at 62 g/ha ([13]; Preemergence, 62 g ai/ha, scale 0 to 100, 0 no effect, 100 complete control, read-out: Plant response rating, Pigweed) was 100% and the pest or weed control at 16 g/ha ([14]; 16 g ai/ha, preemergence, scale 0 to 100 (0 no effect, 100 complete control), read-out: Ragweed plant response rating) was 35%. The pest or weed control at 125 g/ha ([14]; 125 g ai/ha, preemergence, scale 0 (no effect) to 100 (complete control), read-out: Ragweed plant response rating) was 100%, the pest or weed control at 62 g/ha ([14]; Preemergence, 62 g ai/ha, scale 0 to 100, 0 no effect, 100 complete control, read-out: Plant response rating, Ragweed) was 85% and the plant injury at 16 g/ha ([15]; 16 g ai/ha, preemergence, scale 0 to 100 (0 no effect, 100 complete control), read-out: Soybean plant response rating) was 40%. For the same compound, the plant injury at 125 g/ha ([15]; 125 g ai/ha, preemergence, scale 0 (no effect) to 100 (complete control), read-out: Soybean plant response rating) was 98%, the plant injury at 62 g/ha ([15]; Preemergence, 62 g ai/ha, scale 0 to 100, 0 no effect, 100 complete control, read-out: Plant response rating, Soybean) was 95% and the pest or weed control at 16 g/ha ([16]; 16 g ai/ha, preemergence, scale 0 to 100 (0 no effect, 100 complete control), read-out: Barnyardgrass plant response rating) was 30%. It also gave a pest or weed control at 125 g/ha ([16]; 125 g ai/ha, preemergence, scale 0 (no effect) to 100 (complete control), read-out: Barnyardgrass plant response rating) of 100%, a pest or weed control at 62 g/ha ([16]; Preemergence, 62 g ai/ha, scale 0 to 100, 0 no effect, 100 complete control, read-out: Plant response rating, Barnyardgrass) of 100% and a plant injury at 16 g/ha ([17]; 16 g ai/ha, preemergence, scale 0 to 100 (0 no effect, 100 complete control), read-out: Oilseed Rape plant response rating) of 75%. The plant injury at 125 g/ha ([17]; 125 g ai/ha, preemergence, scale 0 (no effect) to 100 (complete control), read-out: Oilseed Rape plant response rating) was 100%, the plant injury at 62 g/ha ([17]; Preemergence, 62 g ai/ha, scale 0 to 100, 0 no effect, 100 complete control, read-out: Plant response rating, Oilseed Rape) was 100% and the pest or weed control at 16 g/ha ([18]; 16 g ai/ha, preemergence, scale 0 to 100 (0 no effect, 100 complete control), read-out: Velvetleaf plant response rating) was 55%. For the same compound, the pest or weed control at 125 g/ha ([18]; 125 g ai/ha, preemergence, scale 0 (no effect) to 100 (complete control), read-out: Velvetleaf plant response rating) was 100% and the pest or weed control at 62 g/ha ([18]; Preemergence, 62 g ai/ha, scale 0 to 100, 0 no effect, 100 complete control, read-out: Plant response rating, Velvetleaf) was 100%.
